Each structure is given as a SMILES string. Entries after “also recorded” stand apart in the source; their conditions may differ. Like-named read-outs stand apart in the source and are kept apart here.

The values that follow come from patent US6046231A, “Use of 4'-bromoflavone in a cancer chemopreventative composition and method” (The Board of Trustees of the University of Illinois, priority 1999, dated 2000).

Series [1] concerns QR XRE-CAT construct, HepG2 cells. In words: CAT expression in HepG2 cells transfected with QR XRE-CAT. Conditions: 10 μM, 48 h; listed as 4'-BF. Format: cell-based, human cells; rat QR gene. The protocol:
Transcient Transfection Gene Expression Assay. Cultured HepG2 human hepatoma cells were transfected with three plasmid constructs (PDTD-1697CAT, XRE-CAT, ARE-CAT) containing various portions of the 5'-region of the QR gene fused to the CAT gene using the calcium phosphate precipitation method (J. Sambrook et al., Molecular cloning: A Laboratory Handbook, Ed. Chris Nolan, CHS Laboratory Press, 1989). After 4 hours of transfection, the cells were treated with 10% glycerol for 3 minutes and rinsed with PBS and switched to MEM, containing 100 units/ml penicillin G sodium, 100 units/ml streptomycin sulfate, nonessential amino acids, and 1 mM sodium pyruvate (Life Technologies Inc.) supplemented with 10% fetal bovine serum for 12-16 hours recovery. Then, test agents were added to the cells. After 48 hours of treatment with the test agents, cells were harvested with lysis buffer (Boehringer Mannheim Biochemical) and CAT protein expressions were assessed using a CAT ELISA kit (Boehringer Mannheim Biochemical). CAT enzyme expression was normalized for the protein content of each sample. All data were expressed as mean +/- SD. Means were compared using Student's t test with n=4.
This was further investigated in transient transfection experiments wherein human hepatoma cells were transfected with DNA constructs containing various portions of the 5' upstream promoter region of the QR gene linked to the CAT reporter gene by using the calcium phosphate precipitation method. Construct pDTD-1097CAT contains elements of the rat QR gene connected to the CAT construct gene. […]
In particular, FIG. 1 illustrates quantitation of CAT expression in HepG2 cells transfected with QR-CAT constructs. […] CAT expression (ng CAT/mg protein) was determined using a CAT ELISA, and the ratio of CAT expression between treated and control cells was calculated (ratio=treated/control).

Another series has as its system cytochrome P-4501A1. Conditions: cited from earlier work.

`O=c1cc(-c2ccc(Br)cc2)oc2ccccc12` [4'-Bromoflavone]: the “CAT expression, QR XRE-CAT” value in series [1] is listed as “Significant induction; also recorded: significantly (P<0.0001, students t test with n=4) induced”. The results for the “levels of cytochrome P-4501A1” value in the series with cytochrome P-4501A1 and in the series with cytochrome P-4501A1 (listed as 4'-bromoflavone) were “significantly increase” and “phase I induction”, respectively.
